In a melting point compilation (Tetko et al.; mined from patent text by program, amines drawn as free bases though some values may be those of a salt):

SMILES | melting point [°C]
CCOC(=O)CCc1c(OCc2ccc(OCc3nc(-c4ccccc4)oc3C)cc2)ccc2ccccc12 | 86 to 87
NC1CCCCCCCCCCC(=O)N1 (single isomer, unassigned; (-)) | 128 to 130
CC(C)C1COCc2nc3c(N)nc4cc(OCC(=O)N5CCOCC5)ccc4c3n21 (configuration not stated) | 137 to 139
O=C(Nc1ccc2c(c1)CCC2)OCc1ccccc1 | 56 to 59
Cc1ccc(C2=C(c3ccc(S(C)(=O)=O)cc3)OC(C)(C)C2=O)cc1 | 167 to 168
COC(=O)[C@H](C)NC(=O)C(=O)Nc1ccccc1C(C)(C)C | 60.1 to 62.1
CC(C(=O)O)C(=O)NCCC=C1c2ccccc2CCc2ccccc21 (configuration not stated) | 174 to 176
O=C(O)CCCCN(C1CCNCC1)S(=O)(=O)c1ccccc1 | 115 to 120
NC(=O)c1cc(Cl)c(Sc2ccc(Cl)cc2)c(Cl)c1 | 171 to 174
CN(CCN1CCN(c2ccc(C(F)(F)F)cc2)CC1)C[C@@]1(C)Cn2cc([N+](=O)[O-])nc2O1 | 148 to 150
O[C@H](COc1cccc2[nH]ccc12)CN1CC=C(c2c[nH]c3c(Cl)cccc23)CC1 | 85 to 90
COc1c(Br)c(-c2csc(C(C)C)n2)cc2oc(=O)c(Cl)c(C)c12 | 186
O=C(O)c1cccc(Nc2nc(Oc3ccccc3)nc(Oc3ccccc3Cl)n2)c1 | 250 to 252
Cc1ccc(C2N=C(c3ccccc3)NC3=C2CCc2c(-c4ccccc4)cc(-c4ccccc4)nc23)cc1 (configuration not stated) | 128 to 133
CN(C)C=CC(=O)c1cccc(N(C)C(=O)C2CCC2)c1 | 117 to 119
CCOC(=O)C(C#N)C(=O)c1nn(-c2ccccc2)c2c1COc1ccccc1-2 (configuration not stated) | 176 to 178
Cc1nc(-c2ccc(C(F)(F)F)cc2)sc1COc1ccc(CC(=O)O)cc1 | 149 to 150
COC(=O)c1cc(Cl)cnc1OC | 79 to 81
CS(=O)(=O)N1CCC(Nc2nc(Cl)nc(Nc3cccc(C(F)(F)F)c3)n2)CC1 | 220 to 222
COc1cc(C)c(C(=O)c2c(Cl)cncc2Cl)c(OC)c1OC | 109 to 111
COc1ccc(S(=O)(=O)C(c2cnc(C(=O)NCCO)cc2C)c2cc(F)ccc2F)cc1F (configuration not stated) | 137 to 138
O=C1CCC(N2Cc3c(OCc4ccc(CNC5CCCCC5)cc4)cccc3C2=O)C(=O)N1 (configuration not stated) | 175 to 177
CC(=O)c1cc2cc(OCCNC[C@H](O)COc3ccccc3)ccc2o1 | 122 to 123
COC1(OC)CCN(c2cc3c(cc2F)c(=O)c(C(=O)O)cn3C2CC2)C1 | 224 to 226
Nc1cc(Oc2ccc(Oc3cc(N)cc(C(F)(F)F)c3)cc2)cc(C(F)(F)F)c1 | 157 to 158

SMILES | melting point [°C]
CN1C(=O)c2cncnc2Nc2ccccc21 | 236 to 237
CC(=O)NC[C@H]1CN(c2ccc(N3CCC(n4nnnc4Cc4cccs4)CC3)c(F)c2)C(=O)O1 | 149 to 150
CC(=O)Nc1cc(CN2CCCCC2)c(O)c2c1CCCC2 | 166 to 167
Clc1ccc(-c2cn3cccc4c3c2CCC4)cc1 | 131
CC(=O)c1cccc(NC(=S)N(C)N)c1 | 125 to 127
O=C(Nc1cccc(-n2nc(C(F)(F)F)cc2C(F)(F)F)c1)c1c(F)cccc1F | 142 to 143
O=[N+]([O-])c1ccc(C(F)(F)F)c(Nc2nc3ccccc3o2)c1 | 150 to 152
COC(=O)CCc1ccc(N2C(=O)CN(c3ccc(C(=N)NC(=O)OC)cc3)C2=O)cc1 | 250
C=CCc1c(O)cc(OC)cc1C(=O)O | 120 to 122
CC(=O)NC(CCc1ccc(C(O)CCCCCc2ccccc2)cc1)(CO[Si](C)(C)C(C)(C)C)CO[Si](C)(C)C(C)(C)C (configuration not stated) | 118 to 120
CCCCCCc1ccc2c3ccc(C=O)cc3n(C)c2c1 | 55 to 56
Cn1cc(-c2cc3cccnc3[nH]2)c2cc(C(=O)NCC(O)CO)ccc21 (configuration not stated) | 171 to 172
CC1(C)Oc2ccc(S(C)(=O)=O)cc2[C@@H](N2CCSC2=NC#N)[C@@H]1O (relative stereo) | 304 to 307
CC(C#CCCc1ccccc1)N(O)C(N)=O (configuration not stated) | 113 to 114
COC1(c2cc(F)cc(Sc3ccc4c(c3)O[C@H](C)C(=O)N4C)c2)CCOCC1 | 107 to 109
Cc1ccccc1C(=O)Nc1nc2ccccc2c(=O)n1C | 185 to 186
CCCCCCCCCCCCCCCCCCNC(=O)OCC(CNS(=O)(=O)CCCCl)NC(=O)OC(C)(C)C (configuration not stated) | 112 to 115
COC(=O)COc1cccc2c(CNC(C)=O)coc12 | 139 to 140
C=CCc1c(O)cccc1C1=NNC(=O)CC1 | 197 to 200
C=Cc1ccc(NC(=O)N2CCN(c3ncnc4cc(OC)c(OC)cc34)CC2)cc1 | 214 to 216
Cc1csc2nc3ccc(C(F)(F)F)cc3n12 | 127
CC(=O)NC[C@H]1CN(c2ccc(C3CCOCC3)cc2)C(=O)O1 | 185 to 187
CCCCCCCCn1c(C)cc2ccccc21 | 121 to 123
COc1cc2ccc(CC(=O)O)cc2cc1OC | 115 to 117
CCn1cc(C2(c3cccc(-c4cccnc4F)c3)N=C(N)N(C)C2=O)cc1CO (configuration not stated) | 170 to 172

SMILES | melting point [°C]
CC(C)C(c1ccccc1N1CCCCC1)C(C(N)=O)c1ccc(C(=O)O)cc1 (configuration not stated) | 215 to 217
CCCCC1N=C(Cl)/C(=C2\C(=O)Nc3ccccc32)N1Cc1ccc(C(=O)O)cc1 (configuration not stated) | 241 to 242
CC(C)C1(C)NC(c2ccccc2C(=O)N(C)C)=NC1=O (configuration not stated) | 144 to 146
C[C@@H]1Cc2ccsc2[C@H](C)N1CCNC(=O)c1ccc(NC(=O)C(F)(F)F)cc1 (relative stereo) | 174 to 177
COc1cc(C(=O)N2CCC(CCN3CCC(C(=O)c4nc5ccccc5n4Cc4ccc(C(=O)O)cc4)CC3)(c3ccccc3)C2)cc(OC)c1OC (configuration not stated) | 173 to 190
COC(=O)CCc1ccc(OCCn2c(=O)sc3cc(C(=O)c4ccccc4)ccc32)cc1 | 74 to 77
N[C@]1(C(=O)O)C=C[C@H]2[C@H](C(=O)O)[C@H]21 | > 250
CCOC(=O)Cc1ccc2c(c1)sc1ccc(C)cc12 | 45 to 48
COc1cc(OC)c2c(=O)[nH]c(-c3cc(C)c(OCCN4CCN(C)CC4)c(C)c3)cc2c1 | 195 to 198
CCOC(=O)CNC(=O)N1CCn2c(c(C(N)=O)c(Cl)c2-c2ccccc2)C1 | 94 to 97
Nc1ccc(-c2ccc(=O)[nH]n2)cc1Cl | 280 to 282
O=C(NCCCl)c1c(Cl)cccc1Cl | 114
COc1cc(NC(=O)OC(C)(C)C)c(N)cc1-c1ccccc1F | 161
O=c1ccn(CCO)c(C(O)c2ccc(Br)cc2)c1O (configuration not stated) | 189 to 193
O=C1NC(=O)C(CC#Cc2ccc(Cl)cc2)(S(=O)(=O)c2ccc(F)cc2)S1 (configuration not stated) | 176 to 177
NC(c1ccncc1)C1CCN(C2CCC(O)(CC(=O)O)CC2)CC1 (configuration not stated) | 266
O=C1OC(=O)c2c(Br)c(Sc3ccccc3)c(Sc3ccccc3)c(Br)c21 | 183 to 184
COc1ccc(NC(=O)c2cc([N+](=O)[O-])ccc2NC(=O)c2ccc(C(C)(C)C)cc2)cc1 | 210 to 211
CCCC(CCC)(CCC)C(N)=O | 69
COC(=O)C1=C(C)NC(c2ncsc2Cl)=NC1c1ccc(F)cc1Cl (configuration not stated) | 98 to 100
O=Cc1ccc(-c2ccccc2)cc1Cl | 90 to 91
COc1cc2c(cc1OC)C(C(C#N)SCCCO)=NCC2 (configuration not stated) | 155 to 156
OC1CSC(Oc2cncc(-c3ccc(C(F)(F)F)cc3)c2)C(O)C1O (configuration not stated) | 218 to 219
CCCOc1cc(C(=O)NC2CC(C)(C)NC(C)(C)C2)ccc1-c1cc2cc(Cl)c(Cl)cc2[nH]1 | > 250
CCCCCS(=O)(=O)NC(=O)/C=C/c1cc(OC2CCOCC2)nn1Cc1ccc(Cl)cc1Cl | 154 to 157

SMILES | melting point [°C]
Cc1ncc2ccc(-c3ccc(F)cc3)nc2n1 | > 200
CCCNC(=O)N(CC(=O)OCC)CC1CC2c3cccc4[nH]cc(c34)CC2N(C)C1 (configuration not stated) | 109 to 110
COCc1cnc2c(NC(=O)c3ccccc3C(F)(F)F)cccc2c1-n1ccnc1 | 126 to 127
CN(C)C(=O)c1ccc(C(=O)CS(=O)(=O)C(c2ccc(Cl)cc2)c2ccc(Cl)cc2)s1 | 192 to 194
O=c1ccc2ccc(OCCCCCc3ccccc3)cc2o1 | 103
CS(=O)(=O)c1nccn1CC(=O)Cl | 132 to 133
C=CCN1C(=O)C(F)N=C(c2ccccc2)c2cc(Cl)ccc21 (configuration not stated) | 138 to 140
CCn1cc(C(=O)O)c(=O)cc1-c1cc(OC)c(OC)c(OC)c1 | 200 to 201
Cc1c(SCCCSc2ccc3ncc([N+](=O)[O-])n3n2)ccnc1C(S)c1nc2cc(S(C)(=O)=O)ccc2[nH]1 (configuration not stated) | 155 to 156
O=C(Cc1ccccc1)Nc1ccc(CN2C(=O)[C@H]3CCC[C@H]3N(C(=O)CN3C(=O)c4ccccc4C3=O)c3ccccc32)cc1 (relative stereo) | 143 to 145
Oc1ccc(-c2nc3cc(O)cc(Br)c3o2)c(F)c1 | 248 to 250
CC(Sc1ccccc1)n1cc(C2=C(c3cn(C(C)Sc4ccccc4)c4ccccc34)C(=O)NC2=O)c2ccccc21 (configuration not stated) | 102 to 105
COC(=O)C1=C(C)CN(c2ccccc2)C1=O | 143 to 145
CCCC[C@H](NC(=O)CC[C@H](C)CNC(=O)COc1ccccc1)C(=O)CS(=O)(=O)Cc1ccco1 | 120 to 121
N#Cc1ccc(C=O)c(-c2cccs2)c1 | 114
O=C1OC(c2ccccc2)CC(O)=C1SCc1ccccc1 (configuration not stated) | 150 to 152
Cc1ccccc1OCC(O)CNC(C)(C)COc1ccc(C(N)=O)cn1 (configuration not stated) | 122 to 128
CCOC(=O)c1cccc(Cn2cnc3ccncc32)c1 | 102 to 104
CN1CCN(Cc2ccccc2F)C(C2=NCCN2)C1 (configuration not stated) | 160 to 162
O=C(O)CN1CCN(C(=O)c2cc(C(F)(F)F)cc(C(F)(F)F)c2)[C@H](Cc2c[nH]c3ccccc23)C1 | 152 to 156
CCC(CC)Nc1cc(C)nc(Sc2c(C)cc(C)cc2C)c1C | 108 to 110
C#CC1(O)CCC2C3CCC4=CCCCC4C3C(=CF)CC21C (configuration not stated) | 103 to 104
